Measured values reported in ChEMBL document CHEMBL1122087, “Computer graphics in drug design: molecular modeling of thyroid hormone-prealbumin interactions” (J Med Chem, 1982).

Each molecule was assayed against Transthyretin (Homo sapiens) (UniProt P02766) (assay: Ability to displace L-[125I]thyoxine from the high affinity prealbumin binding site was expressed as ratio of its apparent association constant to that of L-thyroxine).

SMILES	Ka(T4)
NC(Cc1cc(I)c(Oc2cccc3ccc(O)cc23)c(I)c1)C(=O)O (configuration not stated)	0.7%

Each molecule was assayed against Transthyretin (Homo sapiens) (UniProt P02766) (assay: Ability to displace L-[125I]thyoxine from the high affinity prealbumin binding site was expressed as ratio of its apparent association constant to that of DL-thyroxine).

SMILES	Ka(T4)
NC(Cc1cc(I)c(Oc2ccc(O)c(Br)c2)c(I)c1)C(=O)O (configuration not stated)	1.6%
NC(Cc1cc(I)c(Oc2cc(Br)c(O)c3ccccc23)c(I)c1)C(=O)O (configuration not stated)	28.7%
NC(Cc1cc(I)c(Oc2ccc(O)cc2)c(I)c1)C(=O)O (configuration not stated)	0.3%
NC(Cc1cc(I)c(Oc2cccc3c(O)cccc23)c(I)c1)C(=O)O (configuration not stated)	6.3%
NC(Cc1cc(I)c(Oc2ccc(O)c3ccccc23)c(I)c1)C(=O)O (configuration not stated)	1.6%
NC(Cc1cc(I)c(Oc2cc(Br)c(O)c(Br)c2)c(I)c1)C(=O)O (configuration not stated)	8.6%
